The values that follow come from publication PMC5589637, “New perspectives of cobalt tris(bipyridine) system: anti-cancer effect and its collateral sensitivity towards multidrug-resistant (MDR) cancers” (Oncotarget, 2017).

pIC50: −log10 of the molar value.

The test system of data set [1] is HeLa cancer cells. Nature of the data set: Flow cytometry cell-cycle analysis. The class given is cell-based. Conditions: 24 h, propidium iodide flow cytometry. The text has this: Cobalt complex 2-treated cells were harvested and analysed by flow cytometry using propidium iodide staining (BD Biosciences, San Jose, CA, USA) according to the manufacturer instructions. Cell population in different phase of cell cycle were quantitatively counted by a flow cytometer (BD FACSAria III, San Jose, CA, USA).
Background: A flow cytometer gives signals particle by particle.

The next data set has as its target P-gp (Homo sapiens, UniProt P08183). The settings on record: taxol-resistant MCF-7, HCT-8 and A549, 0.5-10 μM, 4 h, dose-dependent.
The test system of a further data set is H1299 lung cancer cells. Nature of the data set: Cell invasion assay (ECMatrix chamber). The class given is cell-based, human. The settings on record: H1299, 72 h, sub-lethal doses, OD 560 nm. How it is done:
The H1299 cancer cell invasion assay was performed in a Cell Invasion Chamber, a 24-well tissue culture plate with cell culture inserts that contain an 8 μm pore size polycarbonate membrane over a thin layer of dried ECMatrix^TM (CHEMICON). H1299 cells (15000 cells/well) were re-suspended in serum-free medium and incubated in an invasion chamber insert with different concentrations of cobalt complex 2 for 72 hours, while the lower chamber contained medium with 10% FBS. The cells invaded through the ECM layer to the bottom of the polycarbonate membrane were labelled with Cell Stain provided in the kit for 20 min at room temperature. The non-invading cells were gently removed from the interior of the inserts by using a cotton-tipped swab. The number of invaded cells was counted through the microscope and quantified by dissolving stained cells in 10% acetic acid (200 μL/well). The colorimetric reading of the solute mixture was determined by spectrophotometer at OD 560 nm.

Data set [2] concerns HeLa cancer cells. Nature of the data set: Western blot of autophagy markers. The class given is cell-based. Here is the method:
(§1) Western blot analysis was carried out following standard methods. Cells were lysed with RIPA lysis buffer with protease and phosphatase inhibitor cocktails. Protein concentrations were determined using the Bio-Rad protein assay (Bio-Rad Laboratories, Inc., Hercules, CA, USA). After electrophoresis, the proteins from SDS/PAGE were electro-transferred to a Hybond enhanced chemiluminescence nitrocellulose membrane (Amersham Biosciences, NJ, USA), which was then blocked with 5% dried milk for 1 hour. After washing, the blot was incubated with the indicated primary antibodies overnight at 4°C. Detection was performed using appropriated HRP-conjugated secondary antibodies for 1 hour at RT followed by chemiluminescence (Invitrogen).
A general note: In western blotting, separated proteins are transferred to a membrane and probed.

The test system of data set [3] is HCT116 p53^+/+ colon cancer cells. Nature of the data set: MTT cytotoxicity, HCT116 p53+/+. It counts as cell-based, human. The settings on record: 72 h. The text has this:
(§2) All cells were obtained from the American Type Culture Collection (Rockville, MD, USA) unless otherwise specified. Immortalized wild-type and Atg7-deficient mouse embryonic fibroblasts (MEFs) were kindly provided by Professor Masaaki Komatsu (Juntendo University, School of Medicine, Japan). Taxol-resistant types of MCF-7, HCT-8, A549 cancers cells and cisplatin-resistant SGC7901 cancer cells were purchased from KeyGEN BioTECH, China. Cisplatin-sensitive or –resistant A2780, OV2008 and C13 cancer cells were kindly provided by Prof. Benjamin Tsang (Department of Obstetrics and Gynecology and Department of Cellular and Molecular Medicine, University of Ottawa, Canada). HCT116 p53^+/+ and p53^−/− isogenic human colon cancer cells were kindly provided by Professor Bert Vogelstein (Ludwig Center at Johns Hopkins, Howard Hughes Medical Institute, USA). All media were supplemented with 10% fetal bovine serum and antibiotics penicillin (50 U/ml) and streptomycin (50 μg/ml; Invitrogen, Paisley, Scotland, UK). All cell cultures were incubated at 37°C in a 5% humidified CO2 incubator.
(§3) All tested compounds were dissolved in DMSO at a final concentration of 50 mmol/L and stored at −20°C before use. Cytotoxicity was assessed by using the 3-(4,5-dimethylthiazol-2-yl)-2, 5-diphenyltetrazolium bromide (MTT) (5.0 mg/ml) assay as previously described. Briefly, 4×10^3 cells per well were seeded in 96-well plates before drug treatments. After overnight culture, the cells were then exposed to different concentrations of selected compounds ([…]) for 72 hours. Cells without drug treatment were used as control. Subsequently, MTT (10 μL) solution was added to each well and incubated at 37°C for 4 hours followed by the addition of 100 μL solubilization buffer (10%SDS in 0.01 mol/L HCl) and overnight incubation. A570 nm was then determined in each well on the next day. The percentage of cell viability was calculated using the following formula: Cell viability (%) = Atreated/Acontrol × 100. Data were obtained from three independent experiments.

Data set [4] concerns HeLa cancer cells. Nature of the data set: Western blot of S phase cell cycle markers. It counts as cell-based. Conditions: 24 h, 10 and 15 μM. Here is the method: as §1
A further data set deals with P-gp ATPase (Homo sapiens, UniProt P08183). Conditions: 0–2 μM, verapamil (200 μM) stimulated, ATP, 1 h at 37°C. How it is done:
The luminescence of the sample reflects the ATP level in the sample, which is negatively correlated with the activity of P-gp ATPase and was recorded using the SpectraMax Paradigm Multi-Mode Microplate Reader (Molecular Devices). DMSO-treated activities are expressed as the percentage of basal activity.

The subject of data set [5] is HCT-8 taxol-resistant cancer cells. Nature of the data set: MTT cytotoxicity, taxol-resistant HCT-8. The class given is cell-based.
From the text: as §2, §3

Data set [6] has as its system SGC-7901 cisplatin-sensitive cancer cells. Nature of the data set: MTT cytotoxicity, cisplatin-sensitive SGC-7901. The settings on record: 72 h. The class given is cell-based.
From the text: as §2, §3

For data set [7], the system named is A549 (EGFR wild-type lung cancer) cells. Nature of the data set: MTT cytotoxicity assay, A549. It counts as cell-based. Conditions: 72 h. How it is done: as §3

Sequence of P-gp (P08183 whole entry): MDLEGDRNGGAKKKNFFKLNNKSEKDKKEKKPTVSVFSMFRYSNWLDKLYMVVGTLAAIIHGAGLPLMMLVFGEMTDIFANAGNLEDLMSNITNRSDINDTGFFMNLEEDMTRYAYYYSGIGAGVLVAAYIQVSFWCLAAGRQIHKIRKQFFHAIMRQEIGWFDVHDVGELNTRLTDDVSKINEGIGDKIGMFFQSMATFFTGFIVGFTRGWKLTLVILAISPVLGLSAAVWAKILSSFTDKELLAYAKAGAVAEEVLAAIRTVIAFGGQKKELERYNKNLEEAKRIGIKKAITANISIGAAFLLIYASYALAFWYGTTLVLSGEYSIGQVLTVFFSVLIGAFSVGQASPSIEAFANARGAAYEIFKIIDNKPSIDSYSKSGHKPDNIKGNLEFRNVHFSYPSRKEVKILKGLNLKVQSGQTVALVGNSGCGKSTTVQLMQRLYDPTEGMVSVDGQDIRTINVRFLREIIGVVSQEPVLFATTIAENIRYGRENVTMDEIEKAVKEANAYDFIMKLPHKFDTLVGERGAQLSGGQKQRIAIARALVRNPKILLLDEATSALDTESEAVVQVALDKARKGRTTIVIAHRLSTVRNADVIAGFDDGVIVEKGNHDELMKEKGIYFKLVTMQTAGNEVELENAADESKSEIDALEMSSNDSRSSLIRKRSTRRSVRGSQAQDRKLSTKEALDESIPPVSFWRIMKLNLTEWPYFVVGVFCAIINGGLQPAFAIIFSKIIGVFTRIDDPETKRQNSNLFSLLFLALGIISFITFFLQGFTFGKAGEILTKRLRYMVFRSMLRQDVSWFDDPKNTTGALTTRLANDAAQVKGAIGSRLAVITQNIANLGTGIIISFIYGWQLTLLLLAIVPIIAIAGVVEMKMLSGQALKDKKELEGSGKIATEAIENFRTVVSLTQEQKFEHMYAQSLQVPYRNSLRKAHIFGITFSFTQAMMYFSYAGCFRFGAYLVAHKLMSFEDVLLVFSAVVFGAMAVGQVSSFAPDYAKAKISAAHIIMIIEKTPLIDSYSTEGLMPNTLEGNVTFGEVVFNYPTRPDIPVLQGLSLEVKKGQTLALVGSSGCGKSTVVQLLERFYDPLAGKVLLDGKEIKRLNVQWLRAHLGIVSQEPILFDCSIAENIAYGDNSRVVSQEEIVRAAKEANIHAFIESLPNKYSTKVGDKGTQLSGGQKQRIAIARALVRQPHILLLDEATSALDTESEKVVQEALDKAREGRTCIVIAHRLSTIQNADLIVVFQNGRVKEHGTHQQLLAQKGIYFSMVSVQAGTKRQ
Sequence of P-gp ATPase (P08183 whole entry): as above

As for `Cc1ccnc(-c2cc(C)ccn2)c1.Cc1ccnc(-c2cc(C)ccn2)c1.Cc1ccnc(-c2cc(C)ccn2)c1.F[P-](F)(F)(F)(F)F.F[P-](F)(F)(F)(F)F.F[P-](F)(F)(F)(F)F.[Co+3]` [complex 2, [Co^III(4,4’-Me2-bpy)3](PF6)3], the “effect on cell cycle progression, high concentration” value in the data set on HeLa cancer cells [1] (high concentration) was “arrest HeLa cancer cell in S-phase”. The “effect on cell cycle progression, low concentration” value in the data set with HeLa cancer cells [1] (low concentration) is on record as “negligible effect on cell cycle progression”. Moreover, at P-gp, the “effect on P-gp activity (Rho123 accumulation)” value is reported as “induced inhibitory effects towards P-gp activity in all the treated cell lines”. Also, the “cell invasion (absorbance signal of invaded cells)” value in the data set on H1299 lung cancer cells is recorded as “dose-dependently decrease the absorbance signal”. The “protein expression of p62 and P-p70S6K” value with HeLa cancer cells [2] (10μM and 15μM) is given as “prominently reduced”. Further, the LC3-II protein conversion entry with HeLa cancer cells [2] (24 h) was “dose-dependently increased the LC3-II protein conversion”. Moreover, the “expression of beclin-1 protein” value in the data set on HeLa cancer cells [2] (24 h, vs untreated control) is “upregulated”. Further, the pIC50 is 4.81 in data set [3]; 5.91 in [5] (HCT-8 taxol-resistant, MTT, 72 h); 4.95 in data set [6]; 5.10 in data set [7]. Besides, the “protein level of cyclin A and E2F” value in the data set with HeLa cancer cells [4] was “significant accumulation”. The “protein level of cyclin D and E, cdk4, and cdk2” value in the data set with HeLa cancer cells [4] is reported as “decreased”. Also, the “P-gp ATPase activity (change in luminescence)” value on P-gp ATPase is given as “dose-dependently inhibited the ATPase activity of P-gp”. In addition, in [5] (IC50 of taxol-resistant cells over IC50 of taxol-sensitive cells, HCT-8), the “Resistant Factor, HCT-8” value came to 0.36.

The pIC50 is −log10 of the IC50, conventionally taken in molar units.
